# Assays:
# Diamond back moth = test: insecticidal activity against diamond back moth, airbrush spray; type: in vivo
# Experimental: Compounds were dissolved in mixed solvent (acetone:methanol=1:1), and diluted to required concentration with water containing 0.1% of tween 80.
# Diamond back moth, armyworm, peach aphid and carmine spider mite were used as targets and the method of spraying by airbrush was used for determination of insecticidal biassays.
# The method of spraying by airbrush: The cabbage leaves were made into plates of 2 cm diameter by use of punch. A test solution (0.5 ml) was sprayed by airbrush at the pressure of 0.7 kg/cm^2 to both sides of every plate. 10 Second instar larvae were put into the petri-dishes after the leaf disc air-dried and 3 replicates were set for each treatment. Then the insects were maintained in observation room (25° C., 60˜70% R.H.). Scores were conducted and mortalities were calculated after 72 hrs.
# [1] = system: Green peach aphids (Myzus Persicae Sulzer); test: bioactivity test against green peach aphid, airbrush foliar spray; type: in vivo
# Outline: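 Aphids (15-30 per cabbage leaf disc) on moist filter paper were airbrush-sprayed at 10 psi, 0.5 mL, with compound from acetone:methanol (1:1) diluted in water with 0.1% tween 80. Held at 25±1 C, 60±5% RH; survivors counted after 48 hrs to give death rates.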
# cucumber downy mildew = test: protectant activity in vivo against cucumber downy mildew
# armyworm = test: bioactivity test against armyworm, airbrush spray; type: in vivo
# wheat powdery mildew = test: protectant activity in vivo against wheat powdery mildew
# carmine spider mite = test: bioactivity test against carmine spider mite, airbrush spray; type: in vivo
# Outline: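 Broadbean seedlings infested with adult mites were sprayed with compound (acetone/methanol stock diluted in 0.1% Tween 80 water) by airbrush at 0.7 kg/cm^2, 0.5 ml. Three replicates were run. Mortality was scored after 72 hrs.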
# corn rust = test: protectant activity in vivo against corn rust; details: Zea mays, 168 h
# [2] = 100 ppm, mortality after 72 hrs
# [3] = 600 ppm, mortality after 72 hrs
# [4] = 10 ppm, death rate after 48 hrs
# [5] = 100 ppm, death rate after 48 hrs
# [6] = 600 ppm, death rate after 48 hrs
compound,measurement,setting,value
CCc1ncnc(NCCc2ccc(Oc3ccc(C#N)cn3)cc2)c1Cl [Compound I-255],Insecticidal activity against diamond back moth (%),Diamond back moth; 10 mg/L,43%
same,Insecticidal activity against diamond back moth (%),Diamond back moth; 100 mg/L,100%
same,Insecticidal activity against diamond back moth (%),Diamond back moth; 600 mg/L,100%
same,control (test results against diamond back moth),Diamond back moth; [2],100%
same,control (test results against diamond back moth),Diamond back moth; [3],100%
same,control (test results against green peach aphid),[1]; [4],100%
same,control (test results against green peach aphid),[1]; [5],100%
same,control (test results against green peach aphid),[1]; [6],100%
same,protectant activity against cucumber downy mildew in vivo,cucumber downy mildew; 25 ppm,100%
same,protectant activity against cucumber downy mildew in vivo,cucumber downy mildew; 50 ppm,100%
same,protectant activity against cucumber downy mildew in vivo,cucumber downy mildew; 100 ppm,100%
same,protectant activity against cucumber downy mildew in vivo,cucumber downy mildew; 400 ppm,100%
same,Insecticidal activity against armyworm (%),armyworm; 10 mg/L,25%
same,Insecticidal activity against armyworm (%),armyworm; 100 mg/L,100%
same,Insecticidal activity against armyworm (%),armyworm; 600 mg/L,100%
same,control (test results against armyworm),"armyworm; 100 ppm, mortality after 72 h",100%
same,control (test results against armyworm),"armyworm; 600 ppm, mortality after 72 h",100%
same,protectant activity against wheat powdery mildew in vivo,wheat powdery mildew; 25 ppm,100%
same,protectant activity against wheat powdery mildew in vivo,wheat powdery mildew; 100 ppm,100%
same,protectant activity against wheat powdery mildew in vivo,wheat powdery mildew; 400 ppm,100%
same,Insecticidal activity against carmine spider mite (% ),carmine spider mite; 2.5 mg/L,72%
same,Insecticidal activity against carmine spider mite (% ),carmine spider mite; 5 mg/L,84%
same,Insecticidal activity against carmine spider mite (% ),"carmine spider mite; 10 mg/L, contrastive test",85%
same,Insecticidal activity against carmine spider mite (% ),"carmine spider mite; 100 mg/L, contrastive test",100%
same,Insecticidal activity against carmine spider mite (% ),"carmine spider mite; 600 mg/L, contrastive test",100%
same,control against carmine spider mite,carmine spider mite; [2],100%
same,control against carmine spider mite,carmine spider mite; [3],100%
FC(F)c1ncnc(NCCc2ccc(Oc3ccc(Cl)cc3)cc2)c1Cl [II-8915],pest or weed control at 600 ppm,"Diamond back moth; 72 h, 600 ppm, mortality after 72 hrs, read-out: control (test results against diamond back moth)",100%
same,pest or weed control at 1.25 µg/mL,"[1]; Myzus persicae, foliar, 48 h, 1.25 mg/L, contrastive test, read-out: Insecticidal activity against peach aphid (%)",100%
same,pest or weed control at 2.5 µg/mL,"[1]; Myzus persicae, foliar, 48 h, 2.5 mg/L, contrastive test, read-out: Insecticidal activity against peach aphid (%)",100%
same,pest or weed control at 5 µg/mL,"[1]; Myzus persicae, foliar, 48 h, 5 mg/L, contrastive test, read-out: Insecticidal activity against peach aphid (%)",100%
same,pest or weed control at 10 µg/mL,"[1]; Myzus persicae, foliar, 48 h, 10 mg/L, contrastive test, read-out: Insecticidal activity against peach aphid (%)",100%
same,pest or weed control at 100 µg/mL,"[1]; Myzus persicae, foliar, 48 h, 100 mg/L, contrastive test, read-out: Insecticidal activity against peach aphid (%)",100%
same,pest or weed control at 600 µg/mL,"[1]; Myzus persicae, foliar, 48 h, 600 mg/L, contrastive test, read-out: Insecticidal activity against peach aphid (%)",100%
same,pest or weed control at 2.5 ppm,"[1]; Myzus persicae, foliar, 48 h, 2.5 ppm, death rate after 48 hrs",100%
same,pest or weed control at 5 ppm,"[1]; Myzus persicae, foliar, 48 h, 5 ppm, death rate after 48 hrs",100%
same,pest or weed control at 10 ppm,"[1]; Myzus persicae, foliar, 48 h, 10 ppm, death rate after 48 hrs",100%
same,pest or weed control at 100 ppm,"[1]; Myzus persicae, foliar, 48 h, 100 ppm, death rate after 48 hrs",100%
same,pest or weed control at 600 ppm,"[1]; Myzus persicae, foliar, 48 h, 600 ppm, death rate after 48 hrs",100%
same,pest or weed control at 3.125 µg/mL,"cucumber downy mildew; Cucumis sativus, 168 h, read-out: control effect against cucumber downy mildew (%), 3.125 mg/L, protectant activity",20%
same,pest or weed control at 6.25 µg/mL,"cucumber downy mildew; Cucumis sativus, 168 h, read-out: control effect against cucumber downy mildew (%), 6.25 mg/L, protectant activity",90%
same,pest or weed control at 12.5 µg/mL,"cucumber downy mildew; Cucumis sativus, 168 h, read-out: control effect against cucumber downy mildew (%), 12.5 mg/L, protectant activity",95%
same,pest or weed control at 25 µg/mL,"cucumber downy mildew; Cucumis sativus, 168 h, read-out: control effect against cucumber downy mildew (%), 25 mg/L, protectant activity",99%
same,pest or weed control at 50 µg/mL,"cucumber downy mildew; Cucumis sativus, 168 h, read-out: control effect against cucumber downy mildew (%), 50 mg/L, protectant activity",100%
same,pest or weed control at 100 µg/mL,"cucumber downy mildew; Cucumis sativus, 168 h, read-out: control effect against cucumber downy mildew (%), 100 mg/L, protectant activity",100%
same,pest or weed control at 400 µg/mL,"cucumber downy mildew; Cucumis sativus, 168 h, read-out: control effect against cucumber downy mildew (%), 400 mg/L, protectant activity",100%
same,pest or weed control at 6.25 ppm,"cucumber downy mildew; Cucumis sativus, 168 h, read-out: protectant activity against cucumber downy mildew in vivo, 6.25 ppm",80 to 99%
same,pest or weed control at 12.5 ppm,"cucumber downy mildew; Cucumis sativus, 168 h, read-out: protectant activity against cucumber downy mildew in vivo, 12.5 ppm",80 to 99%
same,pest or weed control at 25 ppm,"cucumber downy mildew; Cucumis sativus, 168 h, read-out: protectant activity against cucumber downy mildew in vivo, 25 ppm",80 to 99%
same,pest or weed control at 50 ppm,"cucumber downy mildew; Cucumis sativus, 168 h, read-out: protectant activity against cucumber downy mildew in vivo, 50 ppm",80 to 99%
same,pest or weed control at 100 ppm,"cucumber downy mildew; Cucumis sativus, 168 h, read-out: protectant activity against cucumber downy mildew in vivo, 100 ppm",100%
same,pest or weed control at 400 ppm,"cucumber downy mildew; Cucumis sativus, 168 h, read-out: protectant activity against cucumber downy mildew in vivo, 400 ppm",100%
same,pest or weed control at 10 µg/mL,"armyworm; 72 h, 10 mg/L, read-out: Insecticidal activity against armyworm (%)",44%
same,pest or weed control at 100 µg/mL,"armyworm; 72 h, 100 mg/L, read-out: Insecticidal activity against armyworm (%)",95%
same,pest or weed control at 600 µg/mL,"armyworm; 72 h, 600 mg/L, read-out: Insecticidal activity against armyworm (%)",100%
same,pest or weed control at 100 ppm,"armyworm; 72 h, 100 ppm, mortality after 72 h",80 to 99%
same,pest or weed control at 600 ppm,"armyworm; 72 h, 600 ppm, mortality after 72 h",100%
same,pest or weed control at 100 ppm,"carmine spider mite; Tetranychus cinnabarinus, 72 h, 100 ppm, mortality after 72 hrs",100%
same,pest or weed control at 600 ppm,"carmine spider mite; Tetranychus cinnabarinus, 72 h, 600 ppm, mortality after 72 hrs",100%
same,pest or weed control at 0.4 µg/mL,"corn rust; read-out: control effect against corn rust (%), 0.4 mg/L, protectant activity",30%
same,pest or weed control at 1.6 µg/mL,"corn rust; read-out: control effect against corn rust (%), 1.6 mg/L, protectant activity",80%
same,pest or weed control at 6.25 µg/mL,"corn rust; read-out: control effect against corn rust (%), 6.25 mg/L, protectant activity",100%
same,pest or weed control at 25 µg/mL,"corn rust; read-out: control effect against corn rust (%), 25 mg/L, protectant activity",100%
same,pest or weed control at 100 µg/mL,"corn rust; read-out: control effect against corn rust (%), 100 mg/L, protectant activity",100%
same,pest or weed control at 400 µg/mL,"corn rust; read-out: control effect against corn rust (%), 400 mg/L, protectant activity",100%
same,pest or weed control at 6.25 ppm,"corn rust; read-out: protectant activity against corn rust in vivo, 6.25 ppm",100%
same,pest or weed control at 25 ppm,"corn rust; read-out: protectant activity against corn rust in vivo, 25 ppm",100%
same,pest or weed control at 100 ppm,"corn rust; read-out: protectant activity against corn rust in vivo, 100 ppm",100%
same,pest or weed control at 400 ppm,"corn rust; read-out: protectant activity against corn rust in vivo, 400 ppm",100%
Cc1ncnc(NCCc2ccc(Oc3ccc(C(F)(F)F)cc3)nc2)c1Cl [III-22],control (test results against diamond back moth),Diamond back moth; [3],100%
same,Insecticidal activity against peach aphid (%),"[1]; 1.25 mg/L, contrastive test",67%
same,Insecticidal activity against peach aphid (%),"[1]; 2.5 mg/L, contrastive test",98%
same,Insecticidal activity against peach aphid (%),"[1]; 5 mg/L, contrastive test",100%
same,Insecticidal activity against peach aphid (%),"[1]; 10 mg/L, contrastive test",100%
same,Insecticidal activity against peach aphid (%),"[1]; 100 mg/L, contrastive test",100%
same,Insecticidal activity against peach aphid (%),"[1]; 600 mg/L, contrastive test",100%
same,control (test results against green peach aphid),[1]; [4],100%
same,control (test results against green peach aphid),[1]; [5],100%
same,control (test results against green peach aphid),[1]; [6],100%
same,control effect against cucumber downy mildew (%),"cucumber downy mildew; 6.25 mg/L, protectant activity",100%
same,control effect against cucumber downy mildew (%),"cucumber downy mildew; 12.5 mg/L, protectant activity",100%
same,control effect against cucumber downy mildew (%),"cucumber downy mildew; 25 mg/L, protectant activity",100%
same,control effect against cucumber downy mildew (%),"cucumber downy mildew; 50 mg/L, protectant activity",100%
same,control effect against cucumber downy mildew (%),"cucumber downy mildew; 100 mg/L, protectant activity",100%
same,control effect against cucumber downy mildew (%),"cucumber downy mildew; 400 mg/L, protectant activity",100%
same,protectant activity against cucumber downy mildew in vivo,cucumber downy mildew; 6.25 ppm,100%
same,protectant activity against cucumber downy mildew in vivo,cucumber downy mildew; 12.5 ppm,100%
same,protectant activity against cucumber downy mildew in vivo,cucumber downy mildew; 25 ppm,100%
same,protectant activity against cucumber downy mildew in vivo,cucumber downy mildew; 50 ppm,100%
same,protectant activity against cucumber downy mildew in vivo,cucumber downy mildew; 100 ppm,100%
same,protectant activity against cucumber downy mildew in vivo,cucumber downy mildew; 400 ppm,100%
same,Insecticidal activity against armyworm (%),armyworm; 10 mg/L,71%
same,Insecticidal activity against armyworm (%),armyworm; 100 mg/L,100%
same,Insecticidal activity against armyworm (%),armyworm; 600 mg/L,100%
same,control (test results against armyworm),"armyworm; 100 ppm, mortality after 72 h",100%
same,control (test results against armyworm),"armyworm; 600 ppm, mortality after 72 h",100%
same,protectant activity against wheat powdery mildew in vivo,wheat powdery mildew; 400 ppm,100%
same,Insecticidal activity against carmine spider mite (% ),"carmine spider mite; 10 mg/L, contrastive test",72%
same,Insecticidal activity against carmine spider mite (% ),"carmine spider mite; 100 mg/L, contrastive test",100%
same,Insecticidal activity against carmine spider mite (% ),"carmine spider mite; 600 mg/L, contrastive test",100%
same,control against carmine spider mite,carmine spider mite; [2],100%
same,control against carmine spider mite,carmine spider mite; [3],100%

# From patent US9770026B2, “Substituted pyrimidine compound and uses thereof” (Shenyang Sinochem Agrochemicals R&D Co., Ltd., priority 2012, dated 2017)
